One data set deals with T1, PSMA (Homo sapiens, UniProt Q04609).
T1 construct: PSMA-positive LNCAP cells (300265; Cell Lines Service, Eppelheim, Germany); host or cells: LNCaP cells
The data set can be described thus: PSMA affinity (IC50), competition with [125I]I-BA-KuE on LNCaP cells. The data set is classed as binding. The note with it: natLu complex, on ice 60 min, read-out: IC50. The method, then:
A mixture of trypsin and EDTA (0.05%, 0.02%) in PBS (Biochrom) was used in order to harvest cells. Cells were counted with a Neubauer hemocytometer (Paul Marienfeld, Lauda-Königshofen, Germany).
Affinity Determinations (IC50)
In the case of metal-complexed ligands, the crude reaction mixture was diluted analogously, without further purification. Cells were harvested 24±2 hours prior to the experiment and seeded in 24-well plates (1.5×10^5 cells in 1 mL/well). […] The media of both steps were combined in one fraction and represent the amount of free radioligand. Afterwards, the cells were lysed with 250 μL of 1 M aqueous NaOH for at least 10 min. After a washing step (250 μL of 1 M NaOH), both fractions, representing the amount of bound ligand, were united. Quantification of all collected fractions was accomplished in a γ-counter. PSMA-affinity determinations were carried out at least three times per ligand.

The next data set concerns LNCaP tumor-bearing mice. The data set can be described thus: μSPECT/CT imaging with tumor uptake. The data set is classed as in vivo. The method, then:
Static images were recorded of sacrificed mice, 24 h p.i. directly after blood collection, with an acquisition time of 45 min using the HE-GP-RM collimator and a step-wise multi-planar bed movement. For imaging studies, a MILabs VECTor4 small-animal SPECT/PET/OI/CT from MILabs (Utrecht, Netherlands) was applied. Furthermore, data were reconstructed using the MILabs-Rec software (version 10.02) and a pixel-based Similarity-Regulated Ordered Subsets Expectation Maximization (SROSEM) algorithm with a window-based scatter correction (20% below and 20% above the photopeak, respectively). Moreover, further data analysis was accomplished using the PMOD4.0 software acquired from PMOD TECHNOLOGIES LLC (Zurich, Switzerland) at defined settings (voxel size CT: 80 μm, voxel size SPECT: 0.8 mm, 1.6 mm (FWHM) Gaussian blurring post processing filter, with calibration factor in kBq/mL and decay correction and no attenuation correction).

Data set [1] is described as follows: Octanol-water partition coefficient (log D7.4). The data set is classed as physicochemical. The settings on record: PBS pH 7.4 / n-octanol, 177Lu-labelled. How it is done:
Octanol-Water Partition Coefficient (log D7.4)
Approximately 1 MBq of the labelled tracer was dissolved in 1 mL of a 1:1 mixture (v/v) of PBS (pH 7.4) and n-octanol in a reaction vial (1.5 mL). After vigorous mixing of the suspension for 3 minutes at room temperature, the vial was centrifuged at 15000 g for 3 minutes (Biofuge 15, Heraus Sepatech, Osterode, Germany) and 100 μL aliquots of both layers were measured in a gamma counter. The experiment was repeated at least six times.

Data set [2] in a line: Apparent molecular weight (MWapp).

Molecules are shown by their SMILES.

T1 sequence (Q04609 whole entry): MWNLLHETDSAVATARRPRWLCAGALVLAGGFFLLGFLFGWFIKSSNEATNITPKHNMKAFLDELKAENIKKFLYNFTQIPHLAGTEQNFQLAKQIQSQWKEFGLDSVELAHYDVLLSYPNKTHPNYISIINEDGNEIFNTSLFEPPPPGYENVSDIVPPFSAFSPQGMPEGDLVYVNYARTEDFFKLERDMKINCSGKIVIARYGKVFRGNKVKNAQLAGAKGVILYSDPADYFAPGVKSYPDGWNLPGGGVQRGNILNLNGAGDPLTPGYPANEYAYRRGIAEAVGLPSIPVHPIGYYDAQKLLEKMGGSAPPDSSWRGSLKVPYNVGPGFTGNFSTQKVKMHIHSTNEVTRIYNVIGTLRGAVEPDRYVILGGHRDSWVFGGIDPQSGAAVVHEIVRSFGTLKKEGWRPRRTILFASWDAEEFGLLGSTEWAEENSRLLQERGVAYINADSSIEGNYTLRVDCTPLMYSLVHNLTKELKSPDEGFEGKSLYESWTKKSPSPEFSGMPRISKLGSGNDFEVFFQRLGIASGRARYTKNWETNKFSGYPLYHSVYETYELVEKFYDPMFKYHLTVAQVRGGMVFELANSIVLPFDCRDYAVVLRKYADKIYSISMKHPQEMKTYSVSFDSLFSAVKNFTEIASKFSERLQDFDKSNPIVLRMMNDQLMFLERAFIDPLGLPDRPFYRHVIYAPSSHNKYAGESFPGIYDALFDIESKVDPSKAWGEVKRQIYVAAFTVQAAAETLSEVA

The IC50 is the midpoint of a concentration-inhibition curve. In the case of `CC(C)(C)[Si](F)(c1ccc(C(=O)NC[C@@H](NC(=O)CN2CCN(CC(=O)O)CCN(CC(=O)O)CCN(CC(=O)O)CC2)C(=O)N[C@H](CO)C(=O)NCCC(=O)NCCC(=O)NCCC[C@@H](NC(=O)CC[C@H](NC(=O)N[C@@H](CCC(=O)O)C(=O)O)C(=O)O)C(=O)O)cc1)C(C)(C)C` [Compound 2C013], the IC50 at PSMA amounted to 4.44 nM. For the same compound, the “kidney uptake (FIG. 5, in words)” value in the data set on LNCaP tumor-bearing mice (24 h p.i., versus [177Lu]rhPSMA-7.3 and [177Lu]PSMA-I&T) is “lower kidney uptake than the previously known compounds”. Also, the “tumor uptake of the scanned mouse (FIG. 1)” value with LNCaP tumor-bearing mice (μSPECT/CT scan, single animal) was 9.8 % iD/g. In data set [1], this compound came in with a logD7.4 of −3.30 ± 0.06. For the same compound, the MWapp in data set [2] was 17.6 kDa.

(Values after US20240165281A1, “DUAL MODE RADIOTRACER AND THERAPEUTICS” (Technische Universität München, priority 2021, published 2024).)
